Measured values taken from patent publication US8497075B2, “Methods of identifying a modulator that inhibits the binding between Epstein-Barr virus induced receptor 2 and cholesterol derived ligands” (Novartis AG, priority 2008, dated 2013).
pEC50: −log10 of the molar value.

Assays:
[1] = molecular target: T1, LXRa (NR1H3) (Homo sapiens, UniProt Q13133); test: nuclear hormone receptor reporter gene assay; format: cell-based; conditions: concentrations up to 10 μM
T1 sequence (Q13133 1-447): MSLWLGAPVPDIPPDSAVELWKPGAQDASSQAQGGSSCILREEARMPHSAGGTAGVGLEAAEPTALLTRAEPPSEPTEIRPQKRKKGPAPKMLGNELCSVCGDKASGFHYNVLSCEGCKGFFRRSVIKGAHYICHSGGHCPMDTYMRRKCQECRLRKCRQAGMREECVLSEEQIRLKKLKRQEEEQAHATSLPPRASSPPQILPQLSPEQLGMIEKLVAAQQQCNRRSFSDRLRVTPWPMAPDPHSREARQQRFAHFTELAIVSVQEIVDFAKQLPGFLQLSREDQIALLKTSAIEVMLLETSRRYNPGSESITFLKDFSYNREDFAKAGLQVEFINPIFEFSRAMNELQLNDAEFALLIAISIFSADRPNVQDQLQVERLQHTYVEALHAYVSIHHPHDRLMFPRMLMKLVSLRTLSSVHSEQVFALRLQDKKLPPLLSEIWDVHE
Description: So far oxysterols have been noted to have various physiological activities namely regulate the expression of genes that participate in both sterol and fat metabolism, serve as substrates for the synthesis of bile acids, and are intermediates in the transfer of sterols from the periphery to the liver (Russell, D. W. (2000). Oxysterol biosynthetic enzymes. Biochim. Biophys. Acta 1529, 126-135). […] This included binding assays for 26 different GPCRs, functional assays of 9 different GPCRs, 40 kinase assays, as well as selected ion channels, proteases, transporter and enzyme assays.

[2] = test system: MAP/ERK signaling pathway (p44/42 MAP kinase); test: Western blot of MAP/ERK phosphorylation, EBI2 expressing CHO cell line; format: cell-based, Chinese hamster; conditions: 5 min after compound addition
Description: Cells (E2=CHO/AEQ/Gqi5/hEBI2) were seeded at 2×10^5 cell/well in a 12 well plate (TPP #92012) and incubated at 37° C./5% CO2 overnight. The next day medium was removed and cells were starved in serum-free medium for 4 h. Subsequently compound was added for 5 min at RT before cells were lysed (70 ul, 0.5% Triton-X100, 300 mM NaCl, 50 mM Tris pH7.5, Complete™ protease inhibitor cocktail Roche #04693124001). Cell lysates were resolved by gradient SDS-PAGE (NuPage™4-12%, #NP0322Box), transferred by semi-dry blotting to nitrocellulose (Invitrogen, #LC2001) and probed with a phospho p42/44 MAPK (T202/Y204) rabbit mAb (Cell Signalling #4376S). After treatment with a secondary goat anti rabbit-HRP (Pierce #41460) antibody the blots were developed for chemiluminescence (SuperSignal West Dura™, Pierce #34075) and visualized using a BioRad GEL DOC™ imaging system.

[3] = molecular target: hEBI2 (Homo sapiens, UniProt P32249); test: β-arrestin Pathhunter assay; format: cell-based; parameters: host or cells: HEK293-BAEA, transient transfection with Fugene6; conditions: for pEC50: HEK293-BAEA transiently transfected with hEBI2-prolink, read-out: EC50, β-arrestin recruitment
Description: Several assay technologies (Transfluor™, (Ghosh, R. N., et al. (2005). Quantitative cell-based high-content screening for vasopressin receptor agonists using transfluor technology. J Biomol Screen 10.; Granas, C., at al. (2005). High content screening for G protein-coupled receptors using cell-based protein translocation assays. Comb Chem High Throughput Screen 8.); Pathhunter™, (Hammer, M. M., et al. (2007). A novel enzyme complementation-based assay for monitoring G-protein-coupled receptor internalization. Faseb J, 21; Wehrman, T. S., at al. (2005). Enzymatic detection of protein translocation. Nat Methods 2), Tango™, (Barnea, G., et al. (2008). Here we have applied the Pathhunter™ technology (DiscoverRx) to probe for an interaction of EBI2 with B-arrestin. For that human EBI2 was cloned into the Prolink™ vector (DiscoveRx) for GPCR-prolink fusion protein production. Parental HEK293 cells that stably express β-arrestin2-β-gal-EA fusion protein (HEK293-BAEA) were detached and transiently transfected with hEBI2-prolink vector using Fugene6 transfection reagent in suspension mode. Transfected cells in assay medium (Phenol Red-free DMEM with 10% FBS) were plated into white solid 384 well plates at 15,000 cells/25 μl/well. After overnight incubation, 200 nl of test molecules were transferred into the cell plates by PinTool™ (GNF Systems) followed by 1-2 hour incubation at 37° C., 5% CO2. Flash detection reagents were added at 12.5 μl/well. After 5 min—1 hr room temperature incubation, the cell plates were read on CLIPR™ (Perkin Elmer) or Acquest™ (Molecular Devices) for luminescence signal.

[4] = molecular target: T2, mouse EBI2 receptor (Mus musculus, UniProt Q3U6B2); test: aequorin assay, mouse EBI2 CHO-Aeq cells; format: cell-based
T2 construct: expressed in transfected cells; host or cells: CHO-K1 expressing apoaequorin (CHO-Aeq), Gqi5 or Gα16 background
Description: Human EBI2 gene was cloned using RT-PCR from HL-60 cDNA and corresponded to the Genbank accession number NP_004942. The human EBI2 was inserted into the pEFIN3 vector at the EcoRI and XbaI sites in the multiple cloning site. Mouse EBI2 was cloned using RT-PCR from mouse genomic DNA and corresponded to the Genbank accession number Q3U6B2. The mouse EBI2 was inserted into the pEFIN3 vector at the EcoRI and XbaI sites in the multiple cloning site. Plasmids expressing human and mouse EBI2 were stably transfected in CHO-K1 and HEK293 cells expressing the apoaequorin (CHO-Aeq and HEK-Aeq) (Table 1). mRNA sequence integrity of EBI2 gene was checked using RT-PCR at T0 & T30 culture times in CHO cells.
We also confirmed activation of hEBI2 by 7b,25DHC in different CHO-Aeq cell backgrounds (Gqi5 and Gα16 (=WTA11)) (FIG. 14). […] Finally, we confirmed activation of hEBI2 by 7b,25DHC with hEBi2-HEK-Aeq Gα16 cells (pCAeqG9) and hEBi2 transiently transfected in HEK T cells (data not shown).

Sequence of hEBI2 (P32249 whole entry): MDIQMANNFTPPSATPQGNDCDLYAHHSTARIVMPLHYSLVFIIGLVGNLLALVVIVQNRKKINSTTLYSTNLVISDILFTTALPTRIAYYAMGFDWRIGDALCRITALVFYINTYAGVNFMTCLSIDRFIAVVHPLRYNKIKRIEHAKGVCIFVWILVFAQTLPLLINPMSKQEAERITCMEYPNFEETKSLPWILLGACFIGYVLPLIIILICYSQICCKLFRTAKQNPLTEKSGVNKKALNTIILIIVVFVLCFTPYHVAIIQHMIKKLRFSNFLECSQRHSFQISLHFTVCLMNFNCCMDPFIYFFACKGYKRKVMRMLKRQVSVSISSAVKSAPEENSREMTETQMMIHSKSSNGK
T2 sequence (Q3U6B2 whole entry): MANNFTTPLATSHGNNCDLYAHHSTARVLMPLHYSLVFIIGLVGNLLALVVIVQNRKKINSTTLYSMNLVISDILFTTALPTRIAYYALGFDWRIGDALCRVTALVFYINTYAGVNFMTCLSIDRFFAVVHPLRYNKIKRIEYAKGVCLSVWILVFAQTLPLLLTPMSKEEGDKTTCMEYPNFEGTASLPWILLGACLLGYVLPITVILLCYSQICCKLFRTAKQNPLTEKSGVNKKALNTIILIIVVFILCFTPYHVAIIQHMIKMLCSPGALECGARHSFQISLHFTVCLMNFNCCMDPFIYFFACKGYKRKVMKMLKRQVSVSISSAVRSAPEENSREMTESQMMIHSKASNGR

| SMILES | activation of LXRa [1] | activation of MAP/ERK signaling pathway (p44/42 MAP kinase phosphorylation) [2] | pEC50 [3] | activation of mouse EBI2 receptor [4] | efficacy, β-arrestin recruitment [3] |
| --- | --- | --- | --- | --- | --- |
| C[C@H](CCCC(C)(C)O)[C@H]1CC[C@H]2[C@@H]3[C@H](O)C=C4C[C@@H](O)CC[C@]4(C)[C@H]3CC[C@]12C [7a,25DHC, cholest-5-ene-3b,7a,25-triol] | did not activate | potently activate | 8.10 |  |  |
| CC(CO)CCC[C@@H](C)[C@H]1CC[C@H]2[C@@H]3[C@H](O)C=C4C[C@@H](O)CC[C@]4(C)[C@H]3CC[C@]12C (stereo partly shown) [7a,27DHC, cholest-5-ene-3b,7a,27-triol] | did not activate |  |  |  |  |
| C[C@H](CCCC(C)(C)O)[C@H]1CC[C@H]2[C@@H]3[C@@H](O)C=C4C[C@@H](O)CC[C@]4(C)[C@H]3CC[C@]12C [7b,25DHC, cholest-5-ene-3b,7b,25-triol] |  |  | 6.08 | activation | 48% |
